Measured values published in patent US5599793A, “Antithromobotic agents” (Eli Lilly and Company, priority 1995, dated 1997).

Tests used:
t-PA = biological target: T1, t-PA (Homo sapiens, UniProt P00750); assay: Serine protease selectivity, chromogenic substrate (Kass), t-PA; type: biochemical; details: substrate H-D-Ile-Pro-Arg-p-nitroanilide
T1 construct: purchased American Diagnostica, Greenwich, Conn
Protocol: (§1) The assay is carried out by mixing 50 μL buffer (0.03M Tris, 0.15M NaCl, pH 7.4) with 25 μL of bovine thrombin or human thrombin solution (0.21 mg/mL of thrombostat bovine thrombin, Parke-Davis, or purified human thrombin, Enzyme Research Laboratories, South Bend, Ind., at about 8 NIH units/mL, in the same buffer) and 25 μL of test compound in a solvent (in 50% aqueous methanol, v:v). The 150 μL of an aqueous solution of the chromogenic substrate (at 0.25 mg/mL) are added and the rates of hydrolysis of the substrate are measured by monitoring the reactions at 405 nm for the release of p-nitroaniline. Standard curves are constructed by plotting free thrombin concentration against hydrolysis rate. The hydrolysis rates observed with test compounds are then converted to "free thrombin" values in the respective assays by use of the standard curves. The bound thrombin (bound to test compound) is calculated by subtracting the amount of free thrombin observed in each assay from the known initial amount of thrombin used in the assay. The amount of free inhibitor in each assay is calculated by subtracting the number of moles of bound thrombin from the number of moles of added inhibitor (test compound).
(§2) Kass is calculated for a range of concentrations of test compounds and the mean value is reported in units of liter per mole.
(§3) By substantially following the procedures described above for human thrombin, and using other human blood coagulation system serine proteases and proteases of the fibrinolytic system with the appropriate chromogenic substrates, identified below, selectivity of the compounds of the present invention with respect to the coagulation factor serine proteases and with respect to the fibrinolytic system serine proteases are evaluated as well as their substantial lack of interference with serine proteases of the fibrinolytic system. Thrombin inhibitors preferably should spare fibrinolysis induced by urokinase, tissue plasminogen activator (t-PA) and streptokinase. This would be important to the therapeutic use of such agents as an adjunct to streptokinase, t-PA or urokinase thrombolytic therapy and to the use of such agents as an endogenous fibrinolysis-sparing (with respect to t-PA and urokinase) antithrombotic agent. In addition to the lack of interference with the amidase activity of the fibrinolytic proteases, such fibrinolytic system sparing can be studied by the use of human plasma clots and their lysis by the respective fibrinolytic plasminogen activators.
(§4) Human plasmin is purchased from Boehringer Mannheim, Indianapolis, Ind.; nt-PA is purchased as single chain activity reference from American Diagnostica, Greenwich, Conn.; modified-t-PA6 (mt-PA6) is prepared at Eli Lilly and Company by procedure known in the art (See, Burck, et al., J. Biol. Chem., 265, […] (1990). Plasmin chromogenic substrate H-D-Val-Leu-Lys-p-nitroanilide and tissue plasminogen activator (t-PA) substrate H-D-Ile-Pro-Arg-p-nitroanilide are purchased from Kabi Vitrum, Stockholm, Sweden.

Human Thrombin = Human Thrombin (Homo sapiens, UniProt P00734); assay: Inhibition of amidase activity of thrombin (Kass); type: biochemical; details: apparent association constant, mean over a range of concentrations
Protocol: as §1
The Kass value is the hypothetical equilibrium constant for the reaction between thrombin and the test compound (I). [drawing 54]
as §2

Human plasma [1] = assay: Human plasma anticoagulation, thrombin time (TT); type: biochemical; details: concentration required to double the thrombin time, linear extrapolation
Protocol: (§5) Dog plasma and rat plasma is obtained from conscious mixed-breed hounds (either sex, Hazelton-LRE, Kalamazoo, Mich., U.S.A.) or from anesthetized male Sprague-Dawley rats (Harlan Sprague-Dawley, Inc., Indianapolis, Ind., U.S.A.) by venipuncture into 3.8 percent citrate. Fibrinogen is prepared from in-date ACD human blood as the fraction I-2 according to previous procedures and specifications. Smith, Biochem. J., 185, 1-11 (1980); and Smith, et al., Biochemistry, 11, 2958-2967 (1972). Human fibrinogen is also purchased as 98 percent pure/plasmin free from American Diagnostica, Greenwich, Conn. Coagulation reagents ACTIN, Thromboplastin, and Human plasma are from Baxter Healthcare Corp., Dade Division, Miami, Fla. Bovine thrombin from Parke-Davis ([…], Mich.) is used for coagulation assays in plasma.
(§6) Coagulation assay procedures are as previously described. Smith, et al., Thrombosis Research, 50, 163-174 (1988). A CoAScreener coagulation instrument (American LABor, Inc.) is used for all coagulation assay measurements. The prothrombin time (PT) is measured by adding 0.05 mL saline and 0.05 mL Thromboplastin-C reagent to 0.05 mL test plasma. The activated partial thromboplastin time (APTT) is measured by incubation of 0.05 mL test plasma with 0.05 mL Actin reagent for 120 seconds followed by 0.05 mL CaCl2 (0.02M). The thrombin time (TT) is measured by adding 0.05 mL saline and 0.05 mL thrombin (10 NIH units/mL) to 0.05 mL test plasma. The compounds of formula I are added to human or animal plasma over a wide range of concentrations to determine prolongation effects on the APTT, PT, and TT assays. Linear extrapolations are performed to estimate the concentrations required to double the clotting time for each assay.

factor Xa = biological target: T2, factor Xa (Homo sapiens, UniProt P00742); assay: Serine protease selectivity, chromogenic substrate (Kass), factor Xa; type: biochemical; details: substrate N-Benzoyl-Ile-Glu-Gly-Arg-p-nitroanilide
T2 construct: Human factors X, Xa, IXa, XIa, and XIIa are purchased; purchased Enzyme Research Laboratories, South Bend, Ind
T2 sequence (P00742 235-488 limits assumed): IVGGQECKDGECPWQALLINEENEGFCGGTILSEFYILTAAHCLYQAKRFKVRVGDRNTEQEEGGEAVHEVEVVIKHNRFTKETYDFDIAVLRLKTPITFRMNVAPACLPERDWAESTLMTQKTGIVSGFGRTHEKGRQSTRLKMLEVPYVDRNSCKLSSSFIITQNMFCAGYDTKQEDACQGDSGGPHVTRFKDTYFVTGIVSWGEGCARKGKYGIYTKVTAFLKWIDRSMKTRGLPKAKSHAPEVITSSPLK
T2 sequence (P00742 41-179 partner limits assumed): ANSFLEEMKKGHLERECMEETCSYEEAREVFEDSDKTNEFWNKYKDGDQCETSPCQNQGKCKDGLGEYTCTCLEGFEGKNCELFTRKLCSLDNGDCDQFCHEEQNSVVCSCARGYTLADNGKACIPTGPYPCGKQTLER
Protocol: as §1, §2, §3
(§7) Human factors X, Xa, IXa, XIa, and XIIa are purchased from Enzyme Research Laboratories, South Bend, Ind.; human urokinase from Leo Pharmaceuticals, Denmark; and recombinant activated Protein C (aPC) is prepared at Eli Lilly and Co. substantially according to U.S. Pat. No. 4,981,952. Chromogenic substrates: N-Benzoyl-Ile-Glu-Gly-Arg-p-nitroanilide (for factor Xa); N-Cbz-D-Arg-Gly-Arg-p-nitroanilide (for factor IXa assay as the factor Xa substrate); Pyroglutamyl-Pro-Arg-p-nitroanilide (for Factor XIa and for aPC); H-D-Pro-Phe-Arg-p-nitroanilide (for factor XIIa); and Pyroglutamyl-Gly-Arg-p-nitroanilide (for urokinase); are purchased from KabiVitrum, Stockholm, Sweden, or from Midwest Biotech, Fishers, Ind. Bovine trypsin is purchased from Worthington Biochemicals, Freehold, N.J., and human plasma kallikrein from Kabi Vitrum, Stockholm, Sweden. Chromogenic substrate H-D-Pro-Phe-Arg-p-nitroanilide for plasma kallikrein is purchased from Kabi Vitrum, Stockholm, Sweden. N-Benzoyl-Phe-Val-Arg-p-nitroanilide, the substrate for human thrombin and for trypsin, is synthesized according to procedures described above for the compounds of the present invention, using known methods of peptide coupling from commercially available reactants or purchased from Midwest Biotech, Fishers, Ind.

Plasmin = biological target: T3, Plasmin (Homo sapiens, UniProt P00747); assay: Serine protease selectivity, chromogenic substrate (Kass), plasmin; type: biochemical; details: substrate H-D-Val-Leu-Lys-p-nitroanilide
T3 construct: Human plasmin is purchased; purchased Boehringer Mannheim, Indianapolis, Ind
T3 sequence (P00747 581-810 limits assumed): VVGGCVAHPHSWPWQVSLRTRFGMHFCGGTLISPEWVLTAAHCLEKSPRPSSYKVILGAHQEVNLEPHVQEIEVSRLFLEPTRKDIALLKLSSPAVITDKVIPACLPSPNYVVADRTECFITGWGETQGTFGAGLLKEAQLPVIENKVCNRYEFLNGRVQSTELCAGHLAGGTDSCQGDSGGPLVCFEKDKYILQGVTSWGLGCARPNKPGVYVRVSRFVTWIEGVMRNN
T3 sequence (P00747 97-580 partner limits assumed): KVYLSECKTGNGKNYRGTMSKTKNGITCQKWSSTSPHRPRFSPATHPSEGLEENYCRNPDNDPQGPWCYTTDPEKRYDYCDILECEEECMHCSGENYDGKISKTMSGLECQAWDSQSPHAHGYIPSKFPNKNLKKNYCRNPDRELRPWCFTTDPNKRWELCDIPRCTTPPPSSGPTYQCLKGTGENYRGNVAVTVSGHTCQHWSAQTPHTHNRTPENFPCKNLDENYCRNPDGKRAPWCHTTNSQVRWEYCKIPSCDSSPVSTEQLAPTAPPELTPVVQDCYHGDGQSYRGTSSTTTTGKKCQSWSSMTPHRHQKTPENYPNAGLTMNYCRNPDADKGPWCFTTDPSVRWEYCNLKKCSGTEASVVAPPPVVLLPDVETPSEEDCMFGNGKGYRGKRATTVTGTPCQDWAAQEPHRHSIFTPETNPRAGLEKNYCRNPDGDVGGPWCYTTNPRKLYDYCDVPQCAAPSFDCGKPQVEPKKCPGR
Protocol: as §1, §2, §3, §4

Human plasma [2] = assay: Human plasma anticoagulation, prothrombin time (PT); type: biochemical; details: concentration required to double the PT, linear extrapolation
Protocol: as §5, §6

Human plasma [3] = assay: Human plasma anticoagulation, activated partial thromboplastin time (APTT); type: biochemical; details: concentration required to double the APTT, linear extrapolation
Protocol: as §5, §6

Trypsin = biological target: T4, Trypsin (Bos taurus, UniProt P00760); assay: Serine protease selectivity, chromogenic substrate (Kass), trypsin; type: biochemical, bovine; details: substrate N-Benzoyl-Phe-Val-Arg-p-nitroanilide
T4 construct: Bovine trypsin is purchased; purchased Worthington Biochemicals, Freehold, N.J
T4 sequence (P00760 24-246): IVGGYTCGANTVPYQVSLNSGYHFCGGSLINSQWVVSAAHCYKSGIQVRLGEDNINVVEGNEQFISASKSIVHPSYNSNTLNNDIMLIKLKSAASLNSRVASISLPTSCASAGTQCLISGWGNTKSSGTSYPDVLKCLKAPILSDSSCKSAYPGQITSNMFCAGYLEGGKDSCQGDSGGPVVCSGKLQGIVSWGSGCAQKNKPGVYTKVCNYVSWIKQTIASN
Protocol: as §1, §2, §3, §7

T1 sequence (P00750 36-562): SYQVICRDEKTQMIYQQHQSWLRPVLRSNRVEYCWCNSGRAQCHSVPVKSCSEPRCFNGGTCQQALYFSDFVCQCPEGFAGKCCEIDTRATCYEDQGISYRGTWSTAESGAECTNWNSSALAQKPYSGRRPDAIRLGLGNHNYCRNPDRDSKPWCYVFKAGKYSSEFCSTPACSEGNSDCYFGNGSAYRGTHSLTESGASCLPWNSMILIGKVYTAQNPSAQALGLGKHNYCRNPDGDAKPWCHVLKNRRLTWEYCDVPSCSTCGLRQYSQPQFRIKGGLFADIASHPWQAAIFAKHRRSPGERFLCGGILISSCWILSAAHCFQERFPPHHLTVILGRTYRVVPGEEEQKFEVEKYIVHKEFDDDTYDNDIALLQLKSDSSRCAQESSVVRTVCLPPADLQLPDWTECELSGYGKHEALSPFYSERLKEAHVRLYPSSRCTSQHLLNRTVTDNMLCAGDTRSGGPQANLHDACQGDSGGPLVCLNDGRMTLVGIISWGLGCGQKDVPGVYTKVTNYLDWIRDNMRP

Compound | Enzyme Kass, t-PA (t-PA) [L/mol × 10^6] | Enzyme Kass, Human Thrombin (Human Thrombin) | 2x Clotting time, TT (Human plasma [1]) [ng/mL] | Enzyme Kass, Xa (factor Xa) | Enzyme Kass, Plasmin (Plasmin) [L/mol × 10^6] | 2x Clotting time, PT (Human plasma [2]) | 2x Clotting time, APTT (Human plasma [3]) | Enzyme Kass, Trypsin (Trypsin) [L/mol × 10^6] | Enzyme Kass, t-PA (t-PA; HCl) [L/mol × 10^6] | Enzyme Kass, Human Thrombin (Human Thrombin; HCl) [L/mol × 10^6] | 2x Clotting time, TT (Human plasma [1]; HCl) | Enzyme Kass, Xa (factor Xa; HCl) [L/mol × 10^6] | Enzyme Kass, Plasmin (Plasmin; HCl) [L/mol × 10^6] | 2x Clotting time, PT (Human plasma [2]; HCl) | 2x Clotting time, APTT (Human plasma [3]; HCl) | Enzyme Kass, Trypsin (Trypsin; HCl) [L/mol × 10^6]
CCS(=O)(=O)N[C@H](C(=O)N1C[C@@H](Oc2ccccc2)C[C@H]1C(=O)N[C@H](C=O)CCCNC(=N)N)c1ccccc1.Cl (relative stereo) [Example 16, EtSO2 -L-Phg-Pro(4-cis-phenoxy)-ArgH.HCl] | 0.26 | 43 L/mol × 10^6 | 120 | 6.8 L/mol × 10^6 | 4.8 | 4,900 ng/mL | 2,400 ng/mL | 180 | – | – | – | – | – | – | – | –
CCS(=O)(=O)N[C@@H](C(=O)N1C[C@@H](Oc2ccccc2)C[C@H]1C(=O)N[C@H](C=O)CCCNC(=N)N)c1ccccc1.Cl (relative stereo) [Example 17, EtSO2 -D-Phg-Pro(4-cis-phenoxy)-ArgH.HCl] | 1.5 | 2,200 L/mol × 10^6 | 16 | 32 L/mol × 10^6 | 26 | 1,200 ng/mL | 380 ng/mL | 910 | – | – | – | – | – | – | – | –
Cl.Cl.N=C(N)NCCC[C@@H](C=O)NC(=O)[C@@H]1C[C@H](Oc2ccc(C(=O)O)cc2)CN1C(=O)[C@H]1CCCCN1 (relative stereo) [Example 18, D-hPro-Pro(4-cis-(4-COOH-phenoxy))-ArgH.2 HCl] | 0.013 | 4.5 L/mol × 10^6 | 248 | 0.58 L/mol × 10^6 | 0.37 | 10,783 ng/mL | 5,969 ng/mL | 52.2 | – | – | – | – | – | – | – | –
Cl.Cl.N=C(N)NCCC[C@@H](C=O)NC(=O)[C@@H]1C[C@H](Oc2cccc(C(=O)O)c2)CN1C(=O)[C@H]1CCCCN1 (relative stereo) [Example 19, D-hPro-Pro(4-cis-(3-COOH-phenoxy))-ArgH.2 HCl] | 0.022 | 2.8 L/mol × 10^6 | 345 | 1.30 L/mol × 10^6 | 0.50 | 8,822 ng/mL | 3,497 ng/mL | 49.3 | – | – | – | – | – | – | – | –
CCS(=O)(=O)N[C@H](Cc1ccccc1)C(=O)N1[C@H](C(=O)N[C@H](C=O)CCCNC(=N)N)C[C@@H]2CCCC[C@@H]21.Cl (relative stereo) [Example 23, EtSO2 -D-Phe-cis-Ohi-ArgH.HCl] | 2.07 | 957 L/mol × 10^6 | 19 | 4,37 L/mol × 10^6 | 28.2 | 746 ng/mL | 312 ng/mL | 312 | – | – | – | – | – | – | – | –
Cl.N=C(N)NCCC[C@@H](C=O)NC(=O)[C@@H]1C[C@@H]2CCCC[C@@H]2N1C(=O)[C@@H](Cc1ccccc1)NCC(=O)O (relative stereo) [Example 24, HOOCCH2 -D-Phe-cis-Ohi-ArgH.HCl] | 0.075 | 1,160 L/mol × 10^6 | 11 | 1.70 L/mol × 10^6 | 16.3 | 727 ng/mL | 490 ng/mL | 424 | – | – | – | – | – | – | – | –
Cl.Cl.NC(N)=NCCCC(C=O)NC(=O)C1CC(Oc2ccccc2)CN1C(=O)C1NCCC2CCCCC21 [Example 14, L-1-Piq-Pro(4-cis-phenoxy)-ArgH.2 HCl] | 0.002 | 8.7 L/mol × 10^6 | 460 | 0.48 L/mol × 10^6 | 0.34 | 18,000 ng/mL | 9,000 ng/mL | 6.2 | – | – | – | – | – | – | – | –
Cl.Cl.N=C(N)NCCCC(C=O)NC(=O)C1CC2CCCCC2N1C(=O)C1NCCC2CCCCC21 [Example 21, L-1-cis-Piq-cis-Ohi-ArgH.2 HCl] | – | – | – | – | – | – | – | – | 0.001 | 3.1 | 1,199 ng/mL | 0.03 | 0.20 | 30,776 ng/mL | 16,234 ng/mL | 3.6
